Source: PMC3022755, “HP1 Recruits Activity-Dependent Neuroprotective Protein to H3K9me3 Marked Pericentromeric Heterochromatin for Silencing of Major Satellite Repeats” (PLoS ONE, 2011)
Where no end group is shown, it is not given here. [ ]: non-standard residue; d: D form. The star is where a group is joined. Biotin = O=C1N[C@H]2[C@H](CS[C@H]2CCCCC(=O)*)N1; Lys(Me3) = C[N+](C)(C)CCCC[C@H](N)C(=O)O; d = 2'-deoxy (DNA)

What was measured:
HP1 = test: ADNP peptide pulldown of HeLa S3 nuclear extract, western blot; format: binding
HP1α, HP1β and HP1γ = test: HP1 distribution after ADNP knockdown; format: cell-based, mouse; conditions: NIH3T3, ADNP knockdown; immunofluorescence
major satellite repeats = test: Major satellite repeat transcripts, real time PCR; format: cell-based, mouse; conditions: ADNP knockdown NIH3T3; relative to GAPDH; vs scrambled siRNA or mock; triplicate
ADNP = test: siRNA knockdown, western blot; format: cell-based, mouse; conditions: NIH3T3, vs scrambled siRNA and untransfected (mock)
[1] = test system: major satellite repeat sequences; test: CpG methylation, Southern blot after TaiI digestion; format: cell-based, mouse; conditions: NIH3T3, ADNP knockdown
H4K20me3 = H4K20me3 levels and distribution after ADNP knockdown; format: cell-based, mouse; conditions: NIH3T3, ADNP knockdown; western blot and immunofluorescence
H3K9me3 = H3K9me3 levels and distribution after ADNP knockdown; format: cell-based, mouse; conditions: NIH3T3, ADNP knockdown; western blot and immunofluorescence
H3K27me1 = H3K27me1 levels and distribution after ADNP knockdown; format: cell-based, mouse; conditions: NIH3T3, ADNP knockdown; western blot and immunofluorescence

Substance | HP1 binding (HP1) | distribution of HP1α, HP1β and HP1γ (HP1α, HP1β and HP1γ) | level of major satellite transcripts (major satellite repeats) | ADNP protein levels (ADNP) | reduction of CpG methylation at major satellite repeats [1] | effects on levels and distribution of H4K20me3 (H4K20me3) | effects on levels and distribution of H3K9me3 (H3K9me3) | effects on levels and distribution of H3K27me1 (H3K27me1)
Biotin-EDDSYEAR[Lys(Me3)]SFLTKYFNKQP [ADNPK767me3, methylated ADNP peptide used for pulldown] | does not bind |  |  |  |  |  |  | 
ADNP siRNA: sense 5′ - [GAUUCUUAUGAGGCUAGGA] RNA [TT] DNA, antisense 5′ - [UCCUAGCCUCAUAAGAAUC] RNA [TT] DNA (RNA, 3' dTdT, backbone not given here) [sense 5′ - [GAUUCUUAUGAGGCUAGGA]; RNA [TT]; DNA, antisense 5′ - [UCCUAGCCUCAUAAGAAUC]; DNA] |  | appeared normal | elevated | significant reduction | no reduction | no effects | no effects | no effects
